Laboratory results reported in PMC11962395 (Molecular Cancer Therapeutics, 2024).
Values belong to the compound of their own block, whether it stands above or below them.

What was measured:
SALL4 = SALL4 (Homo sapiens, UniProt Q96SW2+Q9UJQ4); experiment: SALL4 degradation in SK-N-DZ cells; assay type: cell-based
TMPRSS–ERG = experiment: ERG protein levels in tumors, enzalutamide-resistant VCaP model
[1] = target: G1–S phase transition 1 protein (Homo sapiens, UniProt P15170); experiment: Neomorphic substrate degradation in Ramos cells: GSPT1; assay type: cell-based; conditions: increasing concentrations, 24 hours
G1–S phase transition 1 protein, sequence (Q16531 whole entry): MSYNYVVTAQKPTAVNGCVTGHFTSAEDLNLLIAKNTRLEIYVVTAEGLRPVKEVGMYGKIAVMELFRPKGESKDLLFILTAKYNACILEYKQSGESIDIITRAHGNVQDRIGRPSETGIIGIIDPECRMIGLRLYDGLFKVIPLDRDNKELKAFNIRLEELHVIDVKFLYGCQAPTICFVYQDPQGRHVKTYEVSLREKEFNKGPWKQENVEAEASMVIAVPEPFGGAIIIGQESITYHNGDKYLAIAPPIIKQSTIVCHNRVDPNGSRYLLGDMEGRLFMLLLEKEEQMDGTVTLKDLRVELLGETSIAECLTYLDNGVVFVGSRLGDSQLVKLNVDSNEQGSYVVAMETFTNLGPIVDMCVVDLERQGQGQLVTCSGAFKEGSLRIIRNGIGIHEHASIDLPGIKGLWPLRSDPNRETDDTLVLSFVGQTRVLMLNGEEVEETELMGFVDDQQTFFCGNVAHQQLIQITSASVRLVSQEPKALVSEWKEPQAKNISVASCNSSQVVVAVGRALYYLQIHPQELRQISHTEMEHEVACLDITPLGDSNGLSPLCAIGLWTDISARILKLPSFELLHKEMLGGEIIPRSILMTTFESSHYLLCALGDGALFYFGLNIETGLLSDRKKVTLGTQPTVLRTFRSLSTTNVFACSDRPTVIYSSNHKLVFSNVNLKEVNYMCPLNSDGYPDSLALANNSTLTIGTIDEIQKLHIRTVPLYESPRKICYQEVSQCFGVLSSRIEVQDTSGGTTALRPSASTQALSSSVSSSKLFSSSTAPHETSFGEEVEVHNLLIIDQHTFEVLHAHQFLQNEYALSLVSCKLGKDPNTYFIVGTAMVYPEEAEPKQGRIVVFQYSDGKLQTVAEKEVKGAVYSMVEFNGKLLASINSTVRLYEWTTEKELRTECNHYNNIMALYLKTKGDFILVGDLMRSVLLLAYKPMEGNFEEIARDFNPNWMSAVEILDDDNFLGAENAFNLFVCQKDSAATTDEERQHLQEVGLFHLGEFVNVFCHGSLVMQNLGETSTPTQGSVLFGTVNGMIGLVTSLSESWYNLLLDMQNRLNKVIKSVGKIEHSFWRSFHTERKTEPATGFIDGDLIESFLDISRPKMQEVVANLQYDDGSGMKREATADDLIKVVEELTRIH
G1–S phase transition 1 protein, sequence (Q96SW2 whole entry, further chain): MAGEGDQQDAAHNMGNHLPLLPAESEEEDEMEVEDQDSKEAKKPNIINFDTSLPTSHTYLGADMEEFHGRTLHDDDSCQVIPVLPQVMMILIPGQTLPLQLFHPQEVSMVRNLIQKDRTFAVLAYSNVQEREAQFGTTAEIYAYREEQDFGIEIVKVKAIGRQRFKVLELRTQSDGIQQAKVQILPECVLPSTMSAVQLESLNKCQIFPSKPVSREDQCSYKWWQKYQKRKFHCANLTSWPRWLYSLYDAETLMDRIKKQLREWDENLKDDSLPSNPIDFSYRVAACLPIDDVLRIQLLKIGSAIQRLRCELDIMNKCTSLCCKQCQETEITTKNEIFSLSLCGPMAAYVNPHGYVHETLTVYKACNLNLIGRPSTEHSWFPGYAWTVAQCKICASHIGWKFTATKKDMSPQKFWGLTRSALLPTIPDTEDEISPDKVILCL
G1–S phase transition 1 protein, sequence (P15170 whole entry): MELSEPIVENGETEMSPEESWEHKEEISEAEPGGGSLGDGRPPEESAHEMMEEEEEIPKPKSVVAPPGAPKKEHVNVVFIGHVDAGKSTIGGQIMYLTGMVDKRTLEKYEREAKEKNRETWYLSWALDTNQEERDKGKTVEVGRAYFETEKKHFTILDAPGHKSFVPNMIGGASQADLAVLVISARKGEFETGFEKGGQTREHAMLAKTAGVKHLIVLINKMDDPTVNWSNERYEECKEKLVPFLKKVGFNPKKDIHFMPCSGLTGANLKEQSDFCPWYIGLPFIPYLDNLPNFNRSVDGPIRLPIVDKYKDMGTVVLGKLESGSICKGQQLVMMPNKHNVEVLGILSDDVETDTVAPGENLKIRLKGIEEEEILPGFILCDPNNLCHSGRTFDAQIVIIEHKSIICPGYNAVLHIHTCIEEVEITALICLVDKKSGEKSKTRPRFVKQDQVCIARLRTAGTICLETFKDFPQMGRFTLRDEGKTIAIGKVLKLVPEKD

CK1α = CK1α (Homo sapiens, UniProt P48729+Q96SW2); experiment: Neomorphic substrate degradation in Ramos cells: CK1α; assay type: cell-based
CK1α, sequence (P48729 whole entry): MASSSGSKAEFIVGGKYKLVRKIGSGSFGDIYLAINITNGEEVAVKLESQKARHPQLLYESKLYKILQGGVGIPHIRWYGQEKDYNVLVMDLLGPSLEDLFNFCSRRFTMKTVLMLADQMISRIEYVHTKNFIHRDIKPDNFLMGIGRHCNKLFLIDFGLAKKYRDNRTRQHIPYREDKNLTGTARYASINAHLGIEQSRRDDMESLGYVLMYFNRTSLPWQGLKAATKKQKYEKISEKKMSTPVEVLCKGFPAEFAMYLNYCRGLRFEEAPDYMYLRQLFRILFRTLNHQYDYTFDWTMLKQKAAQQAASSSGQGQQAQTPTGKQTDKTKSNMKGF
CK1α, sequence (Q96SW2 whole entry): as the sequence (Q96SW2 whole entry, further chain) above
CK1α, sequence (Q16531 whole entry partner): as the sequence (Q16531 whole entry) above

IKZF1 (Ikaros) = IKZF1 (Ikaros) (Homo sapiens, UniProt Q13422); experiment: Neomorphic substrate degradation in Ramos cells: IKZF1; assay type: cell-based; conditions: increasing concentrations, 24 hours
IKZF1 (Ikaros), sequence (Q96SW2 whole entry partner): as the sequence (Q96SW2 whole entry, further chain) above
IKZF1 (Ikaros), sequence (Q16531 whole entry partner): as the sequence (Q16531 whole entry) above
IKZF1 (Ikaros), sequence (Q13422 whole entry): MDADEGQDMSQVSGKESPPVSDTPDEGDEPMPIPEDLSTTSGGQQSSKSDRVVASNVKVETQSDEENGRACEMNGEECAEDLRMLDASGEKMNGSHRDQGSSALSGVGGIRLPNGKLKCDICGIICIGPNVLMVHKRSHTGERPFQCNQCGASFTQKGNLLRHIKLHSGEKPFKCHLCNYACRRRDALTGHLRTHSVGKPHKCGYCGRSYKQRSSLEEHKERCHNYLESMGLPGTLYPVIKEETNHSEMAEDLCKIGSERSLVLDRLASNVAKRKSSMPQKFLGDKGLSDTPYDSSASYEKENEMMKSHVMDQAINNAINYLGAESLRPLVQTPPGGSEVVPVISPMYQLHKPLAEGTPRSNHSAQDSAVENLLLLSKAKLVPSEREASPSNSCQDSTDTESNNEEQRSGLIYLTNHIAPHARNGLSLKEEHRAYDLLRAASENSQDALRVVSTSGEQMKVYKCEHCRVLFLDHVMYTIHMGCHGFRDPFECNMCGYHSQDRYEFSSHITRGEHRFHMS

PSA [2] = experiment: Plasma PSA levels, patient-derived xenograft TM00298; assay type: in vivo, mice; conditions: 10 mg/kg oral every day for 20 days, 16 hours after last dose
[3] = system: PSA synthesis in LNCaP/AR cells; experiment: PSA suppression assay in LNCaP/AR cells; assay type: cell-based; conditions: 48 h, read-out: IC50 (inhibition of PSA synthesis)
IKZF3 (Aiolos) = IKZF3 (Aiolos) (Homo sapiens, UniProt Q9UKT9); experiment: Neomorphic substrate degradation in Ramos cells: IKZF3; assay type: cell-based; conditions: increasing concentrations, 24 hours
IKZF3 (Aiolos), sequence (Q96SW2 whole entry partner): as the sequence (Q96SW2 whole entry, further chain) above
IKZF3 (Aiolos), sequence (Q16531 whole entry partner): as the sequence (Q16531 whole entry) above
IKZF3 (Aiolos), sequence (Q9UKT9 whole entry): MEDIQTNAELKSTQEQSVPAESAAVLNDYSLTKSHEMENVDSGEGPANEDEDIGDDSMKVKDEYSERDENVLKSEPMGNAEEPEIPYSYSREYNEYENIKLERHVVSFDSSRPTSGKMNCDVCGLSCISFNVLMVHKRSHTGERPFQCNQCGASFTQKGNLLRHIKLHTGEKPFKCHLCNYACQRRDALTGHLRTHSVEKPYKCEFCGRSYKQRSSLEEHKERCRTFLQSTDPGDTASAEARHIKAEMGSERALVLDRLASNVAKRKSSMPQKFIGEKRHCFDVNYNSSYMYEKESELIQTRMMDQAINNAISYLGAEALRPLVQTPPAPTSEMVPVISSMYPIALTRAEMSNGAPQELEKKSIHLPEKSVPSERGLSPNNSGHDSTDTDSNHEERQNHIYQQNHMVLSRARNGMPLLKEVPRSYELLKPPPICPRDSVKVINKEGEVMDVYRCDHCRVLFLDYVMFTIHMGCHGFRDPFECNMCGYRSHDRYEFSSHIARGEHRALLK

[4] = Animal body weights during treatment in prostate cancer mouse models; assay type: in vivo, mice
AR = AR degradation in CRBN-KO LNCaP and 22Rv1 cells with dox-inducible CRBN; assay type: cell-based
[5] = system: nearly 4,000 detectable proteins in VCaP cells; experiment: Proteomic screen in VCaP cells; assay type: cell-based, human; conditions: 10 nmol/L, 8 hours, filter >2× degradation, P <0.05
VCaP xenografts = experiment: Tumor growth inhibition, castrated VCaP xenograft model; assay type: in vivo, mice
[6] = system: abiraterone-resistant tumors; conditions: 10 mg/kg oral every day for 19 days, phase III
rat prostate tissue = experiment: Rat prostate involution study; assay type: in vivo, rats; conditions: 15 and 45 mg/kg oral every day for 10 days
VCaP cells = experiment: VCaP cell proliferation assay; assay type: cell-based, human; conditions: for antiproliferative effect with increasing R1881: 300 nmol/L bavdegalutamide or 1,000 nmol/L enzalutamide, co-treatment with increasing R1881, 5 days
[7] = system: patient-derived xenograft TM00298; conditions: TM00298 model; cited from earlier work
PSA [8] = conditions: TM00298 model; cited from earlier work
[9] = system: enzalutamide-resistant VCaP xenograft tumors; experiment: Tumor growth inhibition, enzalutamide-resistant VCaP xenograft model; assay type: in vivo, mice; conditions: 20 mg/kg oral every day for 28 days
[10] = system: human VCaP tumor xenografts; conditions: intact VCaP xenograft model; cited from earlier work
[11] = vs in vitro functional efficacy of 1 to 30 nmol/L
[12] = enzalutamide-resistant VCaP model

SALL4, sequence (Q9UJQ4 whole entry): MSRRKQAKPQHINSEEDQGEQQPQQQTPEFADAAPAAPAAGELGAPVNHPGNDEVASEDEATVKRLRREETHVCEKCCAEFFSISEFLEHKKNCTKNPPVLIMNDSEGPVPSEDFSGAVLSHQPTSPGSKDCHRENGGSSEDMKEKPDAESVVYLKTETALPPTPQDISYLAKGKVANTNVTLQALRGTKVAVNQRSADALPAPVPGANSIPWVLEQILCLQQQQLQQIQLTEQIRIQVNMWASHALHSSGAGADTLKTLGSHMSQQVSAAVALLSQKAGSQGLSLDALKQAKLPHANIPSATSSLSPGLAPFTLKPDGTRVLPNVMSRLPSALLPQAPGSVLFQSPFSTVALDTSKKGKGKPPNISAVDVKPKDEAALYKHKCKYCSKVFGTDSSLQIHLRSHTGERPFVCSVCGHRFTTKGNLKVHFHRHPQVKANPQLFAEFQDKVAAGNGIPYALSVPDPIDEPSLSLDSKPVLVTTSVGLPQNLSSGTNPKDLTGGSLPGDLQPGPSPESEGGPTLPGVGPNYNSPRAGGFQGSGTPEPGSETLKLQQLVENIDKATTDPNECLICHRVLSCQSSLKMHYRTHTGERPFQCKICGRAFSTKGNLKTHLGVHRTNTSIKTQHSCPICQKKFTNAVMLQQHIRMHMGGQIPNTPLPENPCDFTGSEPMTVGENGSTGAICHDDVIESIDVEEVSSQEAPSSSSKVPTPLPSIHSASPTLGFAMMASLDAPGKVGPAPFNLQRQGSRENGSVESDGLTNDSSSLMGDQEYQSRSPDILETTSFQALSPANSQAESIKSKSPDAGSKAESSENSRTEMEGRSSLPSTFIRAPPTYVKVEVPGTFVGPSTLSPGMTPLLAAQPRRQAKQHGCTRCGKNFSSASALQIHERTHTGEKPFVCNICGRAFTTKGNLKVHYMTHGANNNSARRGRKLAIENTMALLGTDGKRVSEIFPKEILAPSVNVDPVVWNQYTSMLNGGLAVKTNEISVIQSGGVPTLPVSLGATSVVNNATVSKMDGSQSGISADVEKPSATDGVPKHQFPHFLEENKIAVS
SALL4, sequence (Q96SW2 whole entry): as the sequence (Q96SW2 whole entry, further chain) above
SALL4, sequence (Q16531 whole entry partner): as the sequence (Q16531 whole entry) above

SALL4 degradation (SALL4; SK-N-DZ cells, 1,000 nmol/L, 24 hours): modestly degraded
window between AR and SALL4 modulation (SALL4; [11]): ≥ 10 ×
reduction in AR target gene TMPRSS–ERG in tumors (TMPRSS–ERG; 3 or 10 mg/kg bavdegalutamide): Concomitant reductions
G1–S phase transition 1 protein degradation [1]: did not lead to degradation
CK1α degradation (CK1α; Ramos cells, 300 to 1,000 nmol/L, 24 hours): only modest degradation
window between AR and CK1α modulation (CK1α; [11]): ≥ 10 ×
IKZF1 (Ikaros) degradation (IKZF1 (Ikaros)): did not lead to degradation
IC50 [3]: 10 nM
IKZF3 (Aiolos) degradation (IKZF3 (Aiolos)): did not lead to degradation
IC50 (VCaP cells; Homo sapiens, VCaP, 96 h, read-out: IC50 (inhibition of VCaP cell proliferation)): 20 nM
Compound: N#Cc1ccc(O[C@H]2CC[C@H](NC(=O)c3ccc(N4CCC(CN5CCN(c6cc7c(cc6F)C(=O)N(C6CCC(=O)NC6=O)C7=O)CC5)CC4)nn3)CC2)cc1Cl (some centres unmarked) [Bavdegalutamide, N-[(1r,4r)-4-(3-chloro-4-cyanophenoxy)cyclohexyl]-6-[4-({4-[2-(2,6-dioxopiperidin-3-yl)-6-fluoro-1,3-dioxo-2,3-dihydro-1H-isoindol-5-yl]piperazin-1-yl}methyl)piperidin-1-yl]pyridazine-3-carboxamide]
reduction of circulating PSA levels (PSA [2]): 93%
body weights ([4]; castrated VCaP xenograft model): Body weights were maintained
body weights [4, 12]: Body weights were maintained
cereblon dependence of AR degradation (AR): cereblon dependent
proteins degraded in proteomic screen [5]: degradation of only AR
TGI (VCaP xenografts; 1 mg/kg oral): 101%
TGI (VCaP xenografts; 3 mg/kg oral): 109%
volume of abiraterone-resistant tumors [6]: reduced the volume of these abiraterone-resistant tumors
rat prostate involution vs enzalutamide 100 mg/kg (rat prostate tissue): significantly higher activity than enzalutamide
antiproliferative effect with increasing R1881 (VCaP cells; charcoal-stripped serum): antiproliferative effects even in the presence of 1 nmol/L R1881

Compound: C[C@]1(O)CC[C@H]2[C@@H]3CCC4=CC(=O)CCC4=C3C=C[C@@]21C [R1881, reference compound]
effect of R1881 alone on proliferation (VCaP cells; VCaP cells, charcoal-stripped serum): increased the proliferation of VCaP cells

reduction in AR target gene TMPRSS–ERG in tumors (TMPRSS–ERG; 20 mg/kg enzalutamide): this effect did not occur
Compound: CNC(=O)c1ccc(N2C(=S)N(c3ccc(C#N)c(C(F)(F)F)c3)C(=O)C2(C)C)cc1F [Enzalutamide, reference compound]
effect on tumor growth [7]: without affecting tumor growth
reduction of PSA levels (PSA [8]): approximately 50%
body weights ([4]; castrated VCaP xenograft model): Body weights were maintained
body weights [4, 12]: Body weights were maintained
TGI [9]: TGI was not observed
effect on tumor growth [10]: little to no effect on tumor growth
antiproliferative effect with increasing R1881 (VCaP cells; charcoal-stripped serum): antiproliferative only at R1881 concentrations <0.1 nmol/L
